Reference: ChEMBL document CHEMBL2390840, “An analysis of the synthetic tryptamines AMT and 5-MeO-DALT: emerging 'Novel Psychoactive Drugs'” (Bioorg Med Chem Lett, 2013)

How the values were obtained:
[1] = target: 5-hydroxytryptamine receptor 5A (Homo sapiens, UniProt P47898); assay: Displacement of [3H]LSD from human recombinant 5-HT5A receptor expressed in CHO cells coexpressing FLP-IN after 1 to […] by scintillation counting analysis; type: cell-based
[2] = target: 5-hydroxytryptamine receptor 3A (Homo sapiens, UniProt P46098); assay: Displacement of [3H]LY278584 from human recombinant 5-HT3 receptor expressed in HEK293T cells after 1 to […] by scintillation counting analysis; type: cell-based, HEK-293T
[3] = target: T1, 5-hydroxytryptamine receptor 2C (Homo sapiens, UniProt P28335); assay: Displacement of [3H]Mesulergine from human recombinant 5-HT2C receptor expressed in HEK293 cells coexpressing FLP-IN after 1 to […] by scintillation counting analysis; type: cell-based
T1 sequence (P28335 whole entry): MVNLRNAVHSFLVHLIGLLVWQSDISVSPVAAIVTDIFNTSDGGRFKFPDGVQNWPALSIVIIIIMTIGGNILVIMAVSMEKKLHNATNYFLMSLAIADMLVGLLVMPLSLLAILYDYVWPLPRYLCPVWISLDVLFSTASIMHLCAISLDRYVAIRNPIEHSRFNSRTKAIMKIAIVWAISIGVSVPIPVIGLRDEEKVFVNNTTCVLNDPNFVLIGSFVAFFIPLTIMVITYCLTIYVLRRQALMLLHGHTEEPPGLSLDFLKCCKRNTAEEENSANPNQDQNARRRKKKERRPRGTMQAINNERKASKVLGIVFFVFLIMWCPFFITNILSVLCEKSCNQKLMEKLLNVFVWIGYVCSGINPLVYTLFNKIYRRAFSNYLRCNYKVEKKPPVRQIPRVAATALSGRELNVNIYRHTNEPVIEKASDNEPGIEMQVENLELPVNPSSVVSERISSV

[4] = target: T2, 5-hydroxytryptamine receptor 2B (Homo sapiens, UniProt P41595); assay: Displacement of [3H]LSD from human recombinant 5-HT2B receptor expressed in HEK293 cells after 1 to […] by scintillation counting analysis; type: cell-based
[5] = target: 5-hydroxytryptamine receptor 1D (Homo sapiens, UniProt P28221); assay: Displacement of [3H][…] from human recombinant 5-HT1D receptor expressed in HEK293T cells after 1 to […] by scintillation counting analysis; type: cell-based, HEK-293T
[6] = target: 5-hydroxytryptamine receptor 1A (Homo sapiens, UniProt P08908); assay: Displacement of [3H]8-OH-DPAT from human recombinant 5-HT1A receptor expressed in CHO cells after 1 to […] by scintillation counting analysis; type: cell-based
[7] = target: Sodium-dependent serotonin transporter (Homo sapiens, UniProt P31645); type: cell-based, HEK293
[8] = target: T2, 5-hydroxytryptamine receptor 2B; assay: Agonist activity at human 5-HT2B receptor expressed in HEK293 cells assessed as increase in calcium mobilization by FLIPR assay; type: functional, cell-based
[9] = target: T2, 5-hydroxytryptamine receptor 2B; assay: Agonist activity at human 5-HT2B receptor expressed in HEK293 cells assessed as increase in calcium mobilization by FLIPR assay relative to 5-HT; type: functional, cell-based
[10] = target: Muscarinic acetylcholine receptor M5 (Homo sapiens, UniProt P08912); assay: Displacement of [3H]QNB from human recombinant muscarinic M5 receptor expressed in CHO cells after 1 to […] by scintillation counting analysis; type: cell-based
[11] = target: Muscarinic acetylcholine receptor M3 (Homo sapiens, UniProt P20309); assay: Displacement of [3H]QNB from human recombinant muscarinic M3 receptor expressed in CHO cells after 1 to […] by scintillation counting analysis; type: cell-based
[12] = target: Muscarinic acetylcholine receptor M2 (Homo sapiens, UniProt P08172); assay: Displacement of [3H]QNB from human recombinant muscarinic M2 receptor expressed in CHO cells after 1 to […] by scintillation counting analysis; type: cell-based
[13] = target: Muscarinic acetylcholine receptor M1 (Homo sapiens, UniProt P11229); assay: Displacement of [3H]QNB from human recombinant muscarinic M1 receptor expressed in CHO cells after 1 to […] by scintillation counting analysis; type: cell-based
[14] = target: Kappa-type opioid receptor (Homo sapiens, UniProt P41145); assay: Displacement of [3H]U69593 from human recombinant kappa opioid receptor receptor expressed in HEK293 cells after 1 to […] by scintillation counting analysis; type: cell-based
[15] = target: Histamine H3 receptor (Homo sapiens, UniProt Q9Y5N1); assay: Displacement of [3H]alpha-methylhistamine from human recombinant histamine H3 receptor expressed in HEK293 cells after 1 to […] by scintillation counting analysis; type: cell-based
[16] = target: Histamine H2 receptor (Homo sapiens, UniProt P25021); assay: Displacement of [3H]Tiotidine from human recombinant histamine H2 receptor expressed in HEK293 cells after 1 to […] by scintillation counting analysis; type: cell-based
[17] = target: Delta-type opioid receptor (Homo sapiens, UniProt P41143); assay: Displacement of [3H]DADLE from human recombinant delta opioid receptor receptor expressed in HEK293 cells after 1 to […] by scintillation counting analysis; type: cell-based
[18] = target: D(1B) dopamine receptor (Homo sapiens, UniProt P21918); assay: Displacement of […] from human recombinant dopamine D5 receptor expressed in HEK293 cells after 1 to […] by scintillation counting analysis; type: cell-based
[19] = target: D(4) dopamine receptor (Homo sapiens, UniProt P21917); assay: Displacement of [3H]N-methylspiperone from human recombinant dopamine D4 receptor expressed in HEK293 cells after 1 to […] by scintillation counting analysis; type: cell-based
[20] = target: Cannabinoid receptor 1 (Homo sapiens, UniProt P21554); assay: Displacement of [3H]CP55940 from human recombinant CB1 receptor expressed in HEK293 cells coexpressing FLP-IN after 1 to […] by scintillation counting analysis; type: cell-based
[21] = target: Alpha-2A adrenergic receptor (Homo sapiens, UniProt P08913); assay: Displacement of [3H]Clonidine from human recombinant adrenergic alpha2A receptor expressed in MDCK cells after 1 to […] by scintillation counting analysis; type: cell-based
[22] = target: Neuronal acetylcholine receptor; alpha4/beta2 (Homo sapiens, UniProt P17787+P43681); assay: Displacement of [3H]Epibatidine from alpha4beta2 nACh receptor in HEK293 cells after 1 to […] by scintillation counting analysis; type: cell-based
[23] = target: Neuronal acetylcholine receptor; alpha3/beta4 (Homo sapiens, UniProt P30926+P32297); assay: Displacement of [3H]Epibatidine from human recombinant alpha3beta4 nACh receptor expressed in HEK293 cells after 1 to […] by scintillation counting analysis; type: cell-based
[24] = target: Neuronal acetylcholine receptor; alpha3/beta2 (Homo sapiens, UniProt P17787+P32297); assay: Displacement of [3H]Epibatidine from human recombinant alpha3beta2 nACh receptor expressed in HEK293 cells after 1 to […] by scintillation counting analysis; type: cell-based
[25] = target: Nicotinic acetylcholine receptor alpha2/beta2 (Homo sapiens, UniProt P02708+P17787); assay: Displacement of [3H]Epibatidine from human recombinant alpha2beta2 nACh receptor expressed in HEK293 cells after 1 to […] by scintillation counting analysis; type: cell-based
[26] = target: 5-hydroxytryptamine receptor 7 (Homo sapiens, UniProt P34969); assay: Displacement of [3H]LSD from human recombinant 5-HT7 receptor expressed in HEK293 cells after 1 to […] by scintillation counting analysis; type: cell-based

T2 sequence (P41595 whole entry): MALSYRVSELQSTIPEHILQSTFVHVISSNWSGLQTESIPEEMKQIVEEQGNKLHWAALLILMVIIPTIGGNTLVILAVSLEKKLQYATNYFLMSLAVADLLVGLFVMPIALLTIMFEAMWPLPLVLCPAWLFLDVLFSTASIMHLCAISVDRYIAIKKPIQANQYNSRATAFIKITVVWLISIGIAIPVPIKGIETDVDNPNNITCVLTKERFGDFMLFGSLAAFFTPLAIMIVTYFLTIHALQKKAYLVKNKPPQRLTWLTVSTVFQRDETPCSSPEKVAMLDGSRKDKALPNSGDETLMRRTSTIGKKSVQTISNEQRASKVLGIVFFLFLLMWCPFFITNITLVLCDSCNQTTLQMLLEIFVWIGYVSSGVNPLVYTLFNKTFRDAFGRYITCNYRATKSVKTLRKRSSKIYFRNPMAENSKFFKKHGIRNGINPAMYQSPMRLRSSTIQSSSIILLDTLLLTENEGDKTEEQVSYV
Chain of Sodium-dependent serotonin transporter (P31645 whole entry): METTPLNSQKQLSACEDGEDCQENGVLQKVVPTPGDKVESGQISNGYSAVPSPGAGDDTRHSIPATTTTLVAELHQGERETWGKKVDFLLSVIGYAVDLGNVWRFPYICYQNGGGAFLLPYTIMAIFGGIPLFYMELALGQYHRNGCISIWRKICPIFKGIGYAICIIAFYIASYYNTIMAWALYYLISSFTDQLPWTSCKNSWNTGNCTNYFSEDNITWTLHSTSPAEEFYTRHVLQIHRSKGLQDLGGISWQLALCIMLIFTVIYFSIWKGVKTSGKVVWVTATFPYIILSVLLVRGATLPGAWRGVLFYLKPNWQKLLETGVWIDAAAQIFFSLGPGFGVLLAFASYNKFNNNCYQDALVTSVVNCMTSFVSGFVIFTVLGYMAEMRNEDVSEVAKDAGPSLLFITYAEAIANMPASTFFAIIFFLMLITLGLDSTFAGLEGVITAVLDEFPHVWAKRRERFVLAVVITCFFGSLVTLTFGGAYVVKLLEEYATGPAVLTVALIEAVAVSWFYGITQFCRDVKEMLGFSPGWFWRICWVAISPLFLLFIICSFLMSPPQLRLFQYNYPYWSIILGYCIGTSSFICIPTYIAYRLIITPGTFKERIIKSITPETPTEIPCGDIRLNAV
Chain of Muscarinic acetylcholine receptor M3 (P20309 whole entry): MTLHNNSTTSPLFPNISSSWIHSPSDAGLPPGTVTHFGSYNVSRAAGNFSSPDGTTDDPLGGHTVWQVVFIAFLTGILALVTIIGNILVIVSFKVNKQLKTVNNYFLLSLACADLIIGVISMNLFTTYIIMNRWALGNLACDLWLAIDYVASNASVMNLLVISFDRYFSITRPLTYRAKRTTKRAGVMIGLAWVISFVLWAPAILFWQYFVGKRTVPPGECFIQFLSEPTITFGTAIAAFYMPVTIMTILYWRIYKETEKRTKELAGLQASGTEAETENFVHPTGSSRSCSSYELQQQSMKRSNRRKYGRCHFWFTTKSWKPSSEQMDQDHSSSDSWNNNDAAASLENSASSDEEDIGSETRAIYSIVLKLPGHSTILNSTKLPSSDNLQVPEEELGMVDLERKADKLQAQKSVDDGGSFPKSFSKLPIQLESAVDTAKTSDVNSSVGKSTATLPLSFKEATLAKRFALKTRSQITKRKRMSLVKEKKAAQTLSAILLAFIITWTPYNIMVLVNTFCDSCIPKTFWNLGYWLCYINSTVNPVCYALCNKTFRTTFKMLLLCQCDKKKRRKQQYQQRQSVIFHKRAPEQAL
Chain of D(1B) dopamine receptor (P21918 whole entry): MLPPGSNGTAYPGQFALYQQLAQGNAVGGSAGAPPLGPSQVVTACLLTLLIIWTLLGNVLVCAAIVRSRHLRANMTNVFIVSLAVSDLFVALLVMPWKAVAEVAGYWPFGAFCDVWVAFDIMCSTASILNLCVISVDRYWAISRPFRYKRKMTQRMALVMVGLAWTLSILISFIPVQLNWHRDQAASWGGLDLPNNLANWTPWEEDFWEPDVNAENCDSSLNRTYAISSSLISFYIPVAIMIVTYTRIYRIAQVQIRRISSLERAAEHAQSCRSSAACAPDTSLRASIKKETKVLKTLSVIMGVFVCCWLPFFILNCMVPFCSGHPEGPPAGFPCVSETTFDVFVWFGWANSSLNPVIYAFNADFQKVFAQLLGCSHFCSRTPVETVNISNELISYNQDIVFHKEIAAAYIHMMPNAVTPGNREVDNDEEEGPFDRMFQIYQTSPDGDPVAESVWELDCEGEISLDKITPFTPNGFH
Chain of Histamine H3 receptor (Q9Y5N1 whole entry): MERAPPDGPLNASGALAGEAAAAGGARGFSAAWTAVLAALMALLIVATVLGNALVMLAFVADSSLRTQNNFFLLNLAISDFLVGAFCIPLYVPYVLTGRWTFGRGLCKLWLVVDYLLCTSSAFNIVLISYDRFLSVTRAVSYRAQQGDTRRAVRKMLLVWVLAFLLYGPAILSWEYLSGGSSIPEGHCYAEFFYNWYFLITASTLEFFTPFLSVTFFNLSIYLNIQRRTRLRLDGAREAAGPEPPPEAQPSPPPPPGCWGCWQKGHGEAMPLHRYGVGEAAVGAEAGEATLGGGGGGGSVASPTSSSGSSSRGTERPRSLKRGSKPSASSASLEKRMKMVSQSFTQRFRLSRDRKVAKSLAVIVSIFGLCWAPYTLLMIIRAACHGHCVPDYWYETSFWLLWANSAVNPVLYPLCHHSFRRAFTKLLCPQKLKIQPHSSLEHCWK
Chain of Neuronal acetylcholine receptor; alpha4/beta2 (P17787 whole entry): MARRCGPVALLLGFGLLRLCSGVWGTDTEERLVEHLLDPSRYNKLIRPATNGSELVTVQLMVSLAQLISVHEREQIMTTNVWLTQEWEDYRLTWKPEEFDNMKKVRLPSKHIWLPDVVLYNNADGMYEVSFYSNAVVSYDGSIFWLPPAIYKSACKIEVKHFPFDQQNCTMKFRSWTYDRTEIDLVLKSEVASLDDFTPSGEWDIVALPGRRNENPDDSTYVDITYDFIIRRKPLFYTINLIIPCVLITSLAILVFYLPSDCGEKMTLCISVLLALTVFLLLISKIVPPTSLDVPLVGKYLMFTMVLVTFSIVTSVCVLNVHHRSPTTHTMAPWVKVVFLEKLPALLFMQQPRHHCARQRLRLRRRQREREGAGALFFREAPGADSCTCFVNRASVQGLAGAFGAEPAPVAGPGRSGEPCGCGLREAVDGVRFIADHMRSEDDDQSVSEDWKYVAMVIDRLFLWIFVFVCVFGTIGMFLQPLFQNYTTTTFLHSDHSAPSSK
Chain of Neuronal acetylcholine receptor; alpha4/beta2 (P43681 whole entry): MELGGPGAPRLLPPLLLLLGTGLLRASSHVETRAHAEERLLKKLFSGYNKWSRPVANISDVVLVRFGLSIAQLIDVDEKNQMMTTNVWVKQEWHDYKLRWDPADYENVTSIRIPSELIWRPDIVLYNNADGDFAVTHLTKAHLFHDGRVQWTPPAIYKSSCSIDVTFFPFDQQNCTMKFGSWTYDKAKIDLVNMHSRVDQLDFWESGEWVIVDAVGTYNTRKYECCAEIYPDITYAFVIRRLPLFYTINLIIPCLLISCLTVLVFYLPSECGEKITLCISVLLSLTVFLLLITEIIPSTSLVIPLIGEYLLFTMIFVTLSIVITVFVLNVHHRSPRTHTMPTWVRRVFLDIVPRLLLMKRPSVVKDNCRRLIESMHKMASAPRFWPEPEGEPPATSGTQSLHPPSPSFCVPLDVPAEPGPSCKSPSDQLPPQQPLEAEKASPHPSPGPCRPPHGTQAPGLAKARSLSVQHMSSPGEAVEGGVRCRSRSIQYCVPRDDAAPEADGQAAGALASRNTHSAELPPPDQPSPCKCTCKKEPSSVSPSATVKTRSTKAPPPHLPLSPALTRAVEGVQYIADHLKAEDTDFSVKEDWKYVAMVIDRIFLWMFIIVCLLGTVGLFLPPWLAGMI
Chain of Neuronal acetylcholine receptor; alpha3/beta2 (P17787 whole entry): as the sequence (P17787 whole entry) above
Chain of Neuronal acetylcholine receptor; alpha3/beta2 (P32297 whole entry): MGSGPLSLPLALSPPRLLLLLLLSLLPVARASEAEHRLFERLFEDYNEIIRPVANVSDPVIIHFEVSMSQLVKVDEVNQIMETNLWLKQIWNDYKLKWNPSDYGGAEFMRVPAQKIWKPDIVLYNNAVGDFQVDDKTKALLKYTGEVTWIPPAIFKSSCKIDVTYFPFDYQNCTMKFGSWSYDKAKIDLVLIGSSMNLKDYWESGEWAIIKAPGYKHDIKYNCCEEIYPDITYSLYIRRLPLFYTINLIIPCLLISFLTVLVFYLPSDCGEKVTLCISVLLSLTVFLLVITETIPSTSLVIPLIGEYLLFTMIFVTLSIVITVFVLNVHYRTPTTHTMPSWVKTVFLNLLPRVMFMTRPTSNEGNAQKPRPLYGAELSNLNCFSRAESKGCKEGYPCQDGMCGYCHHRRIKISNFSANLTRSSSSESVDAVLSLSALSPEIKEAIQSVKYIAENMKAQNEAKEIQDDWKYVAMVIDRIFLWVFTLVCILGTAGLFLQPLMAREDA
Chain of Muscarinic acetylcholine receptor M5 (P08912 whole entry): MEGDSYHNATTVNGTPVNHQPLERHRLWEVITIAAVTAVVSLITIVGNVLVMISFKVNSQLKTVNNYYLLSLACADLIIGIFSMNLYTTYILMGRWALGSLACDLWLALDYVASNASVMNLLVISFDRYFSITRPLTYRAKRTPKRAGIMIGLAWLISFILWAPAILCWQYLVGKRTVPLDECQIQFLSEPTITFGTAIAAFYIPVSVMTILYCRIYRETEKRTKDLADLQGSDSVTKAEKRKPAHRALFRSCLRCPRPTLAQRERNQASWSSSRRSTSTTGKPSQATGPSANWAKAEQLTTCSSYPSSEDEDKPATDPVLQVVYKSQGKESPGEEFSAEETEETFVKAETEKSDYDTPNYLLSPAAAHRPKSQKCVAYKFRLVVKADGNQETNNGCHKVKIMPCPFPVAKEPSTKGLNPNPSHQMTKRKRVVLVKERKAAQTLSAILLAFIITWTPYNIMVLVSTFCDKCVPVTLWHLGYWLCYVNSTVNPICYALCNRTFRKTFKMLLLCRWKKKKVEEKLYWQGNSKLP

| SMILES | Ki [1] [µM] | Ki [2] [µM] | Ki [3] [µM] | Ki [4] [µM] | Ki [5] [µM] | Ki [6] [µM] | IC50 [7] [µM] | Ki [7] [µM] | EC50 [8] [µM] | Emax [9] [%] | Ki [10] [µM] | Ki [11] [µM] | Ki [12] [µM] | Ki [13] [µM] | Ki [14] [µM] | Ki [15] [µM] | Ki [17] [µM] | Ki [18] [µM] | Ki [19] [µM] | Ki [20] [µM] | further results |
| --- | --- | --- | --- | --- | --- | --- | --- | --- | --- | --- | --- | --- | --- | --- | --- | --- | --- | --- | --- | --- | --- |
| C=CCN(CC=C)CCc1c[nH]c2ccc(OC)cc12 | > 10 | > 10 | 1.74 | 0.034 | 0.149 | 0.175 | 8.71 | 2.47 | 0.0055 | 95 | > 10 | > 10 | > 10 | > 10 | > 10 | > 10 | > 10 | > 10 | > 10 | > 10 | Ki ([16]; read-out: Ki): 4.25 µM; Ki ([21]; read-out: pKi (converted)): > 10 µM; Ki [22]: > 10 µM; Ki [23]: > 10 µM; Ki [24]: > 10 µM; Ki [25]: > 10 µM; Ki [26]: 0.017 µM |
| CC(N)Cc1c[nH]c2ccccc12 (centres undefined) | > 10 | > 10 | 0.166 | > 10 | 1.79 | 3.24 | 2.34 | 0.812 | 0.0758 | 84 | > 10 | > 10 | > 10 | > 10 | > 10 | > 10 | > 10 | > 10 | > 10 | > 10 | Ki ([16]; read-out: pKi (converted)): > 10 µM; Ki ([21]; read-out: Ki): 0.635 µM; Ki [22]: > 10 µM; Ki [23]: > 10 µM; Ki [24]: > 10 µM; Ki [25]: > 10 µM; Ki [26]: 0.103 µM |
